The values below come from US7713986B2, “Compounds and methods for treatment of chemotherapy-induced anemia” (priority 2006, dated 2010).

The structures appear in SMILES notation.

The nature of data set [1]: Body weight of H-460 tumor-bearing nude mice given chemotherapeutic agent with or without Compound A. Format: in vivo, female Harlan nude mice. Here is the method: To examine the effects of compounds and methods of the present invention on weight loss associated with chemotherapeutic agents, the following study was performed. This experiment was carried out essentially as described above in Example 2. […] Cages, food, and bedding were autoclaved. Animal diets were obtained from Harlan Teklad (Madison, Wis.).
Body weights were monitored over time for individual animals. Changes in individual animal body weights over time are shown in FIGS. 3-8, and are presented as percent of initial body weight (treatment day 1), which was set at 100%.

Data set [2] deals with animal model of chemotherapy-induced anemia. Format: in vivo, Sprague Dawley male rats. Here is the method: Fifteen Sprague Dawley male rats (280-300 g) were obtained from Charles River Laboratories. On day 0, rats were treated by intraperitoneal (i.p.) injection with a single dose of saline (control; n=3) at 8 ml/kg, or Cisplatin (CP; Bedford Laboratories, Bedford Ohio) at either 7 mg/kg (7 ml/kg; n=6) or 10 mg/kg (10 ml/kg; n=6). Blood samples (0.2 ml) were collected on days 5, 9, and 16 as follows. Animals were anesthetized with isoflurane and 0.2 ml of blood was collected from the tail vein into a MICROTAINER EDTA-2K tube (Becton-Dickinson). Blood samples were processed for hematocrit as described above to determine the degree of anemia produced in each animal.
Beginning on day 19 of the study, one half of each cisplatin-treated group (n=3×2) and all of the control group were treated by oral gavage once per day for 5 consecutive days with a 2 ml/kg volume of 0.5% CMC (Sigma-Aldrich). […] Blood samples (0.5 ml) were collected as described above immediately prior to treatment and 4 days after treatment initiation. Blood samples were analyzed for CBC and reticulocyte counts as described above. On day 9 after initiation of oral treatment, a blood sample (0.1 ml) was collected and processed for hematocrit as described above.

The subject of data set [3] is female Harlan nude mice implanted with H460 tumor cells. The data set can be described thus: H-460 tumor-bearing nude mice given chemotherapeutic agent with or without Compound A: premature morbidity and hematocrit. As to the method:
To examine the effect of methods and compounds of the present invention on treatment of chemotherapy-induced anemia, the following study was performed. The human H-460 lung cancer cell line used was obtained from the National Cancer Institute. (Brower et al., (1986) Cancer Res 46:798-806.) Animals were maintained in a HEPA-filtered environment during the experimental period. Cages, food, and bedding were autoclaved. Animal diets were obtained from Harlan Teklad (Madison, Wis.). Hydrochloric acid, 0.15% (v/v), was added to the drinking water.
Compounds of the invention were pre-formulated in an aqueous vehicle consisting of 0.1% (w/w) Polysorbate 80 (JT Baker) and 0.5% (w/w) high viscosity carboxymethyl cellulose sodium (Spectrum) to achieve a final 10 ml/kg dosing (oral gavage).
A stock tumor was established by subcutaneously injecting a cell suspension into nude mice. The resulting tumor was maintained in nude mice subcutaneously as tumor stock prior to use. Tumor implantation was performed when the stock tumors were in log phase of growth. Before implantation, tumor tissue was harvested from stock mice and placed in RPMI-1640 medium. Necrotic tissues were dissected away and viable tissues were cut into 1-2 mm^2 pieces. In these experiments, 1×10^7H460 tumor cells were implanted subcutaneously to the flanks of female Harlan nude mice.
Treatment (administration of compounds of the present invention) was initiated when the inoculated tumors reached approximately 100 mm^3, and continued for four weeks.
These studies followed the guidelines of the Tumor Growth Delay (TGD) type, using a protocol that required individual animals to be humanely euthanized after reaching a set endpoint of tumor volume greater than or equal to 2 cc. At this endpoint, blood was also sampled and hematocrit (HCT) was determined.
These two chemotherapeutic are representative of two broad classes of conventional anti-tumor therapeutics: microtubule poisons (Paclitaxcel); and DNA-directed agents, including the sub-classification of DNA alkylating agents (Carboplatin). […]

As to `CC(=O)O[C@H]1C(=O)[C@@]2(C)[C@H]([C@H](OC(=O)c3ccccc3)[C@]3(O)C[C@H](OC(=O)[C@H](O)[C@@H](NC(=O)c4ccccc4)c4ccccc4)C(C)=C1C3(C)C)[C@]1(OC(C)=O)CO[C@@H]1C[C@@H]2O` [Paclitaxel], in data set [1] (mouse, in vivo), the “animals that ended the study at a body weight below that at the start” value is reported as 2 of 10 and the “body weight pattern compared to non-treated vehicle control animals” value is given as “pattern of weight loss”.

In the case of `O=C(O)CNC(=O)c1nc(Cl)c2ccccc2c1O` [Compound A, N—((1-chloro-4-hydroxy-isoquinoline-3-carbonyl)-amino)-acetic acid], the “hematocrit in Cisplatin-treated animals” value in data set [2] (4 days after initiating treatment with Compound A, oral gavage once per day for 5 days (FIG. 1A)) was “increased hematocrit”. In addition, the percent circulating reticulocytes result in data set [2] (Cisplatin-treated animals, compared to those without Compound A (FIG. 1B)) was “increased”. Also, the “hematocrit levels versus non-treated counterparts” value in data set [2] (Cisplatin-treated rats, day 9 post-treatment (FIG. 1A)) was “significantly higher”. The “body weight change at end of study” value in data set [1] (mouse, in vivo) is “overall net weight gain”. Besides, in data set [1] (mouse, in vivo, 60 mg/kg), the “body weights during the time course of the study” value was “increased gradually”.

`N.N.O=C([O-])C1(C(=O)[O-])CCC1.[Pt+2]` [Carboplatin]: the “body weight pattern compared to non-treated vehicle control animals” value in data set [1] (chemotherapeutic agent alone (FIG. 5, FIG. 7)) is listed as “pattern of weight loss”. Besides, the “animals with more than a 10% weight gain at any time during the study” value in data set [1] (number of animals of 10) was 3 of 10. The “animals that ended the study at a body weight below that at the start” value in data set [1] (number of animals of 10 per group) was 7 of 10. Also, the hematocrit over time entry in data set [3] (Carboplatin alone (closed circles in FIG. 2)) was “significant decrease”. In addition, in data set [3] (Cmpd A 60 mg/kg p.o., Carboplatin 120 mg/kg i.p. Q7d), the “# animals morbid prematurely” value is 6/10. Also, the “# animals reaching study endpoint” value in data set [3] (Cmpd A 60 mg/kg p.o., Carboplatin 120 mg/kg i.p. Q7d, endpoint tumor volume >= 2 cc) is given as 4/10.
